Results from US20080051429A1, “USE OF 4-AMINO-PIPERIDINES FOR TREATING SLEEP DISORDERS” (priority 2006, published 2008).
Where a name gives a salt, the structure may show the parent alone. Read-outs that look alike come from different tables or passages of the source.

Molecular target: T1, 5-HT2A receptor (Homo sapiens, UniProt P28223)
T1 construct: expressed in transfected cells; host or cells: NIH3T3 cells, pSI expression vector
Assay: R-SAT functional receptor assay
Type: cell-based
Settings: for Emax: 120 h
Procedure: The functional receptor assay, Receptor Selection and Amplification Technology (R-SAT), was used (with minor modifications from that previously described U.S. Pat. No. 5,707,798) to screen compounds for efficacy at the 5-HT2A receptor. Briefly, NIH3T3 cells were grown in 96 well tissue culture plates to 70-80% confluence. Cells were transfected for 12-16 hours with plasmid DNAs using superfect (Qiagen Inc.) as per manufacture's protocols. R-SAT's were generally performed with 50 ng/well of receptor and 20 ng/well of Beta-galactosidase plasmid DNA. All receptor and G-protein constructs used were in the pSI mammalian expression vector (Promega Inc) as described in U.S. Pat. No. 5,707,798. The 5HT2A receptor gene was amplified by nested PCR from brain cDNA using the oligodeoxynucleotides based on the published sequence (see Saltzman et. al. Biochem. Biophys. Res. Comm. 181:1469-78 (1991)). Large-scale transfections, cells were transfected for 12-16 hours, then trypsinized and frozen in DMSO. Frozen cells were later thawed, plated at 10,000-40,000 cells per well of a 96 well plate that contained drug. With both methods, cells were then grown in a humidified atmosphere with 5% ambient CO2 for five days. Media was then removed from the plates and marker gene activity was measured by the addition of the beta-galactosidase substrate ONPG (in PBS with 5% NP-40). The resulting colorimetric reaction was measured in a spectrophotometric plate reader (Titertek Inc.)at […]. All data were analyzed using the computer program XLFit (IDBSm). Efficacy is the percent maximal repression compared to repression by a control compound (ritanserin in the case of 5HT2A). pIC50 is the negative of the log(IC50), where IC50 is the calculated concentration in Molar that produces 50% maximal repression.
Briefly, the 5-HT2A receptor, and the alpha subunit of the guanine nucleotide binding protein Gq were transiently transfected into NIH3T3 cells and assayed using the functional receptor assay, Receptor Selection and Amplification Technology (R-SAT) essentially as disclosed in U.S. Pat. No. 5,707,798. Each compound was screened at seven serially diluted concentrations in triplicate. Data were analyzed using least squares fit analysis with GraphPad Prism (San Diego, Calif.), and are reported normalized to percent response.
R-SAT assays (as described in Example 42) were carried out with cells transfected with receptors (listed below) to determine the receptor selectivity profile for compound 26HCH16D. 5HT2A inverse agonist data (IC50 nM; % efficacy) were derived from detailed dose response curves (7 points in triplicate).
(§1) The functional receptor assay, Receptor Selection and Amplification Technology (R-SAT), was used (with minor modifications from that previously described U.S. Pat. No. 5,707,798) to screen compounds for efficacy at the 5-HT2A receptor. The RSAT assay was conducted as described herein.
as §1, with “5,707,798, which is incorporated herein by reference in its entirety)” for “5,707,798)”

[1] = read-out: Percent Efficacy, compared to ritanserin
[2] = Table 3, read-out: pIC50 (converted)
[3] = compared to ritanserin, read-out: 5HT2A % inhibition
[4] = Table 6, read-out: 5HT2A pIC50 (converted)
[5] = Table 5, read-out: 5HT2A pIC50 (converted)

T1 sequence (P28223 whole entry): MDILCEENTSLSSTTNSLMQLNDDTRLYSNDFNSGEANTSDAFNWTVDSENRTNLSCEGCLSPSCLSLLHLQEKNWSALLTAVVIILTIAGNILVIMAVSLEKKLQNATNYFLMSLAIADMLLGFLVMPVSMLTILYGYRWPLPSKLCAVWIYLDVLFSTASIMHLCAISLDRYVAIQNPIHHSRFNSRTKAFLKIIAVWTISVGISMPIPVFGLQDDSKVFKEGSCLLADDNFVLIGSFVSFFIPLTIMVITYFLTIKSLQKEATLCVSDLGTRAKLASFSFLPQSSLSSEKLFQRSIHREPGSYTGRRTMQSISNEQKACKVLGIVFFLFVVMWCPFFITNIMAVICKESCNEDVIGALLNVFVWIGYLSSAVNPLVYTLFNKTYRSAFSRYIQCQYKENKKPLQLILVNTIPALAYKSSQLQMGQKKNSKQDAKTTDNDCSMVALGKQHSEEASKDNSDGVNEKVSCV

| Emax [1] | IC50 [2] | Structure (SMILES) | Emax [3] | IC50 [4] | other results |
| --- | --- | --- | --- | --- | --- |
| 111% | 7.94 nM | COc1ccc(CNC(=O)N(Cc2ccc(C)cc2)C2CCN(C(C)(C)C)CC2)cc1 [Example 58AKU-3, N-(4-Methylbenzyl)-N-(1-t-butylpiperidin-4-yl)-N′-(4-methoxybenzyl)carbamide] | – | – | – |
| 110% | 0.251 nM | CCOc1ccc(CC(=O)N(Cc2ccc(C)cc2)C2CCN(C)CC2)cc1 [Example 58AKU-4, 2-(4-Ethoxyphenyl)-N-(4-methylbenzyl)-N-(1-methylpiperidin-4-yl)acetamide] | – | – | – |
| 101% | 0.158 nM | Cc1ccc(CN(C(=O)Cc2ccc(OC(C)C)cc2)C2CCN(C)CC2)cc1 [Example 58AKU-6, 2-(4-i-Propoxyphenyl)-N-(4-methylbenzyl)-N-(1-methylpiperidin-4-yl)acetamide] | – | – | – |
| – | – | COc1ccc(CC(=O)N(Cc2ccc(C)cc2)C2CCN(Cc3csc(C)n3)CC2)cc1 [Example 63ELH1A, 2-(4-Methoxyphenyl)-N-(4-methylbenzyl)-N-[1-(2-methylthiazol-4-ylmethyl)piperidin-4-yl]acetamide] | – | – | Emax (read-out: Percent Efficacy): 104%; IC50 (pIC50, Table 3): 5.01 nM |
| 95% | 1 nM | CCOc1ccc(CC(=O)N(CCc2ccc(F)cc2)C2CCN(C)CC2)cc1 [Example 63ELH20, 2-(4-ethoxyphenyl)-N-[2-(4-fluorophenyl)ethyl]-N-(1-methylpiperidin-4-yl)acetamide] | – | – | – |
| 100% | 3.16 nM | CCOc1ccc(CC(=O)N(Cc2ccc(F)cc2)C2CCN(C)CC2)cc1 [Example 63ELH21, 2-(4-Ethoxyphenyl)-N-(4-fluorobenzyl)-N-(1-methylpiperidin-4-yl)acetamide] | – | – | – |
| – | – | Cc1ccc(CC2N(Cc3ccc(OC(F)(F)F)cc3)C(=O)OC23CCN(C)CC3)cc1 (stereo not shown) [Example 69NLS21, 8-Methyl-4-(4-methylbenzyl)-3-(4-trifluoromethoxybenzyl)-1-oxa-3,8-diaza-spiro[4.5]decan-2-one, hydrochloride] | 83% | 0.794 nM | – |
| – | – | COc1ccc(CN2C(=O)OC3(CCN(C)CC3)C2Cc2ccc(C)cc2)cc1 (stereo not shown) [Example 69NLS35, 3-(4-Methoxybenzyl)-8-methyl-4-(4-methylbenzyl)-1-oxa-3,8-diaza-spiro[4.5]decan-2-one, hydrochloride] | 103% | 0.251 nM | – |
| – | – | CN1CCC2(CC1)OC(=O)N(Cc1ccc(OCC3CC3)cc1)C2Cc1ccc(F)cc1 (stereo not shown) [Example 69NLS52, 3-(4-Cyclopropylmethoxybenzyl)-4-(4-fluorobenzyl)-8-methyl-1-oxa-3,8-diaza-spiro[4.5]decan-2-one, hydrochloride] | 87% | 0.251 nM | – |
| – | – | CC(C)COc1ccc(CN2C(=O)OC3(CCN(CCC4OCCO4)CC3)C2Cc2ccc(F)cc2)cc1 (stereo not shown) [Example 69NLS79-II, 8-(2-[1,3]Dioxolan-2-yl-ethyl)-4-(4-fluorobenzyl)-3-(4-isobutoxybenzyl)-1-oxa-3,8-diaza-spiro[4.5]decan-2-one, hydrochloride] | 101% | 7.94 nM | – |
| – | – | CC(C)COc1ccc(CN2C(=O)OC3(CCNCC3)C2Cc2ccc(F)cc2)cc1 (stereo not shown) [Example 69NLS81, 4-(4-Fluorobenzyl)-3-(4-isobutoxybenzyl)-1-oxa-3,8-diaza-spiro[4.5]decan-2-one, hydrochloride] | 85% | 5.01 nM | – |
| – | – | CC(C)COc1ccc(CN2C(=O)OC3(CCN(CCCN4CCOCC4)CC3)C2Cc2ccc(F)cc2)cc1 (stereo not shown) [Example 69NLS83, 4-(4-Fluorobenzyl)-3-(4-isobutoxybenzyl)-8-(3-morpholin-4-yl-propyl)-1-oxa-3,8-diaza-spiro[4.5]decan-2-one, dihydrochloride] | 85% | 10 nM | – |
| – | – | CC(C)COc1ccc(CN2C(=O)OC3(CCN(C(C)C)CC3)C2Cc2ccc(F)cc2)cc1 (stereo not shown) [Example 69NLS85, 4-(4-Fluorobenzyl)-3-(4-isobutoxybenzyl)-8-isopropyl-1-oxa-3,8-diaza-spiro[4.5]decan-2-one, hydrochloride] | 95% | 0.794 nM | – |
| – | – | CC(C)COc1ccc(CC(=O)N(Cc2ccc(F)cc2)C2CCN(CCCN3CCCC3=O)CC2)cc1 [Example 098AF76-65, N-(4-Fluorobenzyl)-2-(4-isobutoxyphenyl)-N-{1-[3-(2-oxo-pyrrolidin-1-yl)propyl]piperidin-4-yl}acetamide, hydrochloride] | – | – | Emax (read-out: 5HT2A % INH, compared to ritanserin): 100%; IC50 [5]: 0.794 nM |
| – | – | CC(C)COc1ccc(CC(=O)N(Cc2ccc(F)cc2)C2CCN(CCCN3CC(C)CC(C)C3)CC2)cc1 (stereo not shown) [Example 103NLS45-B, N-{1-[3-(3,5-Dimethylpiperidin-1-yl)propyl]piperidin-4-yl}-N-(4-fluorobenzyl)-2-(4-isobutoxyphenyl)acetamide, dihydrochloride] | – | – | Emax (read-out: 5HT2A % INH): 84%; IC50 [5]: 25.1 nM |
| – | – | CC(C)COc1ccc(CC(=O)N(Cc2ccc(F)cc2)C2CCN(CCCN3CC(C)OC(C)C3)CC2)cc1 (stereo not shown) [Example 103NLS69-A, N-{1-[3-(2,6-Dimethylmorpholin-4-yl)propyl]piperidin-4-yl}-N-(4-fluorobenzyl)-2-(4-isobutoxyphenyl)acetamide, dioxalate] | – | – | Emax (read-out: 5HT2A % INH): 96%; IC50 [5]: 2 nM |
| – | – | CCCOc1ccc(CC(=O)N(CCc2ccc(F)cc2)C2CCN(CCCN3C(=O)OC[C@@H]3C(C)C)CC2)cc1 [Example 117NLS03-B, N-[2-(4-Fluorophenyl)ethyl]-N-{1-[3-(4-(S)-isopropyl-2-oxo-oxazolidin-3-yl)propyl]piperidin-4-yl}-2-(4-propoxyphenyl)acetamide, oxalate] | – | – | IC50 (5HT2A pIC50, Table 5): 3.98 nM; Emax (read-out: 5HT2A % INH): 85% |
| – | – | CC(C)COc1ccc(CNC(=O)N(Cc2ccc(F)cc2)C2CCN(CCC3OCCCO3)CC2)cc1 [Example 117NLS25, N-{1-[2-(1,3-Dioxan-2-yl)ethyl]piperidin-4-yl}-N-(4-fluorobenzyl)-N′-(4-isobutoxybenzyl)carbamide, tartrate] | – | – | Emax (read-out: 5HT2A % INH): 94%; IC50 [5]: 1.26 nM |
| – | – | CC[C@H]1COC(=O)N1CCCN1CCC(N(Cc2ccc(F)cc2)C(=O)Cc2ccc(OCC(C)C)cc2)CC1 [Example 118AF16-80, N-(4-Fluorobenzyl)-2-(4-isobutoxyphenyl)-N-{1-[3-((S)-4-ethyl-2-oxo-oxazolidin-3-yl)-propyl]piperidin-4-yl}acetamide, oxalate] | – | – | IC50 (5HT2A pIC50, Table 5): 0.794 nM; Emax (read-out: 5HT2A % INH): 103% |

| Structure (SMILES) | Emax [1] | IC50 [2] | Emax [3] | IC50 [4] | other results |
| --- | --- | --- | --- | --- | --- |
| Cc1ccc(CN(C(=O)Cc2ccc(C(C)C)cc2)C2CCN(C)CC2)cc1 [Example 57MBT70-3D, N-((4-methylphenyl)methyl)-N-(1-methylpiperidin-4-yl)-2-(4-(2-propyl)phenylacetamide hydrochloride] | 87% | – | – | – | IC50 (pIC50, Table 3): 1.26 nM |
| Cc1ccc(CN(C(=O)Cc2ccc(OC(F)(F)F)cc2)C2CCN(C)CC2)cc1 [Example 57MBT70-4D, N-((4-methylphenyl)methyl)-N-(1-methylpiperidin-4-yl)-2-(4-trifluoromethoxyphenyl)acetamide hydrochloride] | – | 3.16 nM | – | – | Emax (read-out: Percent Efficacy): 98% |
| COc1ccc(CC(=O)N(Cc2ccc(C)cc2)C2CCN(C)CC2)cc1C [Example 57MBT70-8D, N-((4-methylphenyl)methyl)-N-(1-methylpiperidin-4-yl)-2-(4-methoxy-3-methylphenyl)acetamide hydrochloride] | – | 20 nM | – | – | Emax (read-out: Percent Efficacy): 119% |
| CCCCOc1ccc(CC(=O)N(Cc2ccc(C)cc2)C2CCN(C)CC2)cc1 [Example 58AKU-5, 2-(4-Butoxyphenyl)-N-(4-methylbenzyl)-N-(1-methylpiperidin-4-yl)acetamide] | 99% | 0.316 nM | – | – | – |
